Source: patent publication US20150374646A1, “TREATMENT OF CANCER AND OTHER CONDITIONS USING A TRANSCRIPTION FACTOR MODULATOR” (C & C BIOPHARMA, LLC, priority 2013, published 2015)

What was measured:
CCRF-CEM [1] = test: Leukemia cell growth inhibition, CellTiter-Glo (Example 1); type: cell-based; details: Homo sapiens, ALL (T-cell), 72 hours
Description: (§2) Various human leukemia cells were grown to the logarithmic growth phase and seeded into 24-well plates. […] Treated cells were further incubated for 72 hours and then were examined for cell proliferation. Cell proliferation was determined using the CellTiter-Glo Luminescence Cell Viability assay (Promega Corporation, Madison, Wis.) according to the manufacturer's protocol. The calculated inhibition rate was determined with the following formula: Inhibition rate (%)=(1−Luminescence of experimental group/Luminescence of control group)×100. IC50 is the calculated concentration of a compound needed to inhibit half of the maximum cell growth (equivalent to cell growth in control group) based on the corresponding dose-response curve under the described experimental conditions.

RS4;11 = test: as above; type: cell-based; details: Homo sapiens; RS4;11, ALL (B-cell); 72 hours
Description: as §2

NCI-H23 = test: Cancer cell line growth inhibition, CellTiter-Glo (Example 3); type: cell-based; details: Homo sapiens, NSCLC, 72 hours
Description: (§1) YT30 was tested for growth inhibition against 67 human cancer cell lines derived from diverse tissues including the National Cancer Institute human cancer cell lines (NCI-60). […] Cells in different wells were treated with various concentrations of YT30, YT86, YT88, or YT128. […] Cell viabilities were determined by the CellTiter-Glo Luminescence Cell Viability assay kit (Promega Corporation, Madison, Wis.) according to manufacturer's protocol.

SK-MEL-28 = test: as above; type: cell-based; details: Homo sapiens, Melanoma, 72 hours
Description: as §1

SF-539 = test: as above; type: cell-based; details: Homo sapiens, CNS, 72 hours, read-out: IC50
Description: as §1

Caski = test: as above; type: cell-based; details: Homo sapiens, Ca-Ski, Cervical, 72 hours, read-out: IC50
Description: as §1

Colo 205 = test: as above; type: cell-based; details: Homo sapiens, Colon, 72 hours
Description: as §1

HOP-62 = test: as above; type: cell-based; details: Homo sapiens, NSCLC, 72 hours
Description: as §1

siHa = test: as above; type: cell-based; details: Homo sapiens, Cervical, 72 hours, read-out: IC50
Description: as §1

EKVX = test: as above; type: cell-based; details: Homo sapiens, NSCLC, 72 hours
Description: as §1

LOX IMVI = test: as above; type: cell-based; details: Homo sapiens, Melanoma, 72 hours
Description: as §1

M14 = test: as above; type: cell-based; details: Homo sapiens, Melanoma, 72 hours
Description: as §1

MALME-3M = test: as above; type: cell-based; details: Homo sapiens, Melanoma, 72 hours
Description: as §1

SK-MEL-2 = test: as above; type: cell-based; details: Homo sapiens, Melanoma, 72 hours
Description: as §1

HeLa = test: as above; type: cell-based; details: Homo sapiens, Cervical, 72 hours, read-out: IC50
Description: as §1

MDA-MB231 = test: as above; type: cell-based; details: Homo sapiens, MDA-MB-231; Breast, MDA-MB231; 72 hours; read-out: IC50
Description: as §1

MDA-MB-435 = test: as above; type: cell-based; details: Homo sapiens, Melanoma, 72 hours, read-out: IC50
Description: as §1

SF-295 = test: as above; type: cell-based; details: Homo sapiens, CNS, 72 hours, read-out: IC50
Description: as §1

MCF7 = test: as above; type: cell-based; details: Homo sapiens, Breast, 72 hours, read-out: IC50
Description: as §1

CCRF-CEM [2] = test: as above; type: cell-based; details: Homo sapiens, Leukemia, 72 hours, read-out: IC50
Description: as §1

OVCAR-8 = test: as above; type: cell-based; details: Homo sapiens, Ovary, 72 hours
Description: as §1

HCT116 = test: as above; type: cell-based; details: Homo sapiens, HCT-116, Colon, 72 hours
Description: as §1

SN12C = test: as above; type: cell-based; details: Homo sapiens, Renal, 72 hours, read-out: IC50
Description: as §1

NCI-H226 = test: as above; type: cell-based; details: Homo sapiens, NSCLC, 72 hours
Description: as §1

HepG2 = test: as above; type: cell-based; details: Homo sapiens, Liver, 72 hours
Description: as §1

U251 = test: as above; type: cell-based; details: Homo sapiens, U-251, CNS, 72 hours, read-out: IC50
Description: as §1

OVCAR-3 = test: as above; type: cell-based; details: Homo sapiens, Ovary, 72 hours, read-out: IC50
Description: as §1

SK-MEL-5 = test: as above; type: cell-based; details: Homo sapiens, Melanoma, 72 hours
Description: as §1

UACC-257 = test: as above; type: cell-based; details: Homo sapiens, Melanoma, 72 hours
Description: as §1

NCI-H460 = test: as above; type: cell-based; details: Homo sapiens, NSCLC, 72 hours
Description: as §1

PC-3 = test: as above; type: cell-based; details: Homo sapiens, Prostate, 72 hours
Description: as §1

Jurkat = test: Leukemia cell growth inhibition, CellTiter-Glo (Example 1); type: cell-based; details: Homo sapiens, ALL (T-cell), 72 hours
Description: as §2

BaF3 BCR-ABL T315I = test: as above; type: cell-based; details: Mouse cell line with BCR-ABL with T315I point mutation (Gleevec resistant), 72 hours
Description: as §2

MOLT-4 = test: as above; type: cell-based; details: Homo sapiens; MOLT-4, ALL (T-cell); 72 hours
Description: as §2

Nalm-6 = test: cells; details: Homo sapiens, NALM-6, 72 h, read-out: 72 hr growth inhibition (%)
Description: as §2
Growth inhibition experiments were performed as previously described.

Question: Which IC50 (CCRF-CEM [1]) does the source give for `Nc1ccccc1NC(=O)CCCCCC(=O)Nc1cccc(Br)c1` [YT30] here?
Answer: 1.53 µM

Question: And the IC50 (RS4;11)?
Answer: 1.05 µM

Question: What about the IC50 (NCI-H23) of the same molecule?
Answer: 11 µM

Question: And the IC50 (SK-MEL-28)?
Answer: 5.99 µM

Question: And the IC50 (SF-539)?
Answer: 10.8 µM

Question: What about the IC50 (Caski) of the same molecule?
Answer: 5 µM

Question: What about the IC50 (Colo 205) of the same molecule?
Answer: 14.4 µM

Question: And the IC50 (HOP-62)?
Answer: 29.6 µM

Question: What about the IC50 (siHa) of the same molecule?
Answer: 13.1 µM

Question: And the IC50 (EKVX)?
Answer: 4.57 µM

Question: What about the IC50 (LOX IMVI) of the same molecule?
Answer: 3.03 µM

Question: And the IC50 (M14)?
Answer: 6.13 µM

Question: What about the IC50 (MALME-3M) of the same molecule?
Answer: 5.84 µM

Question: And the IC50 (SK-MEL-2)?
Answer: 4.6 µM

Question: What about the IC50 (HeLa) of the same molecule?
Answer: 4.3 µM

Question: And the IC50 (MDA-MB231)?
Answer: 14.2 µM

Question: What about the IC50 (MDA-MB-435) of the same molecule?
Answer: 10.4 µM

Question: What about the IC50 (SF-295) of the same molecule?
Answer: 10.3 µM

Question: What about the IC50 (MCF7) of the same molecule?
Answer: 6.84 µM

Question: What about the IC50 (CCRF-CEM [2]) of the same molecule?
Answer: 1.53 µM

Question: What about the IC50 (OVCAR-8) of the same molecule?
Answer: 6.74 µM

Question: And the IC50 (HCT116)?
Answer: 13 µM

Question: What about the IC50 (SN12C) of the same molecule?
Answer: 9.52 µM

Question: What about the IC50 (NCI-H226) of the same molecule?
Answer: 12.7 µM

Question: What about the IC50 (HepG2) of the same molecule?
Answer: 12.7 µM

Question: And the IC50 (U251)?
Answer: 7.36 µM

Question: What about the IC50 (OVCAR-3) of the same molecule?
Answer: 9.17 µM

Question: What about the IC50 (SK-MEL-5) of the same molecule?
Answer: 3.87 µM

Question: And the IC50 (UACC-257)?
Answer: 6.1 µM

Question: What about the IC50 (NCI-H460) of the same molecule?
Answer: 5.41 µM

Question: And the IC50 (PC-3)?
Answer: 9.79 µM

Question: What about the IC50 (Jurkat) of the same molecule?
Answer: 0.91 µM

Question: And the IC50 (BaF3 BCR-ABL T315I)?
Answer: 1.11 µM

Question: What about the IC50 (MOLT-4) of the same molecule?
Answer: 1.13 µM

Question: What about the inhibition at 0.5 µM (Nalm-6) of the same molecule?
Answer: 2.5%

Question: And the inhibition at 1 µM (Nalm-6)?
Answer: 8.4%
